The record followed here is patent publication US20250042900A1 (priority 2022, published 2025).

The target in assay [1] is T1, 5-Hydroxytryptamine (Serotonin) Receptor 1A (5-HT1A) (Homo sapiens, UniProt P08908).
T1 construct: host or cells: cAMP Hunter cell line
The assay can be described thus: cAMP secondary messenger assay, antagonist format. To be noted: read-out: IC50 (μM) Antag./Blocker/Inhibitor. Format: cell-based.

For assay [2], the target named is Adrenergic Receptor α2A (ADRA2A) (Homo sapiens, UniProt P08913). The assay can be described thus: cAMP secondary messenger assay, antagonist format. To be noted: read-out: IC50 (μM) Antag./Blocker/Inhibitor. Type of assay: cell-based.
Chain of Adrenergic Receptor α2A (ADRA2A) (P08913 whole entry): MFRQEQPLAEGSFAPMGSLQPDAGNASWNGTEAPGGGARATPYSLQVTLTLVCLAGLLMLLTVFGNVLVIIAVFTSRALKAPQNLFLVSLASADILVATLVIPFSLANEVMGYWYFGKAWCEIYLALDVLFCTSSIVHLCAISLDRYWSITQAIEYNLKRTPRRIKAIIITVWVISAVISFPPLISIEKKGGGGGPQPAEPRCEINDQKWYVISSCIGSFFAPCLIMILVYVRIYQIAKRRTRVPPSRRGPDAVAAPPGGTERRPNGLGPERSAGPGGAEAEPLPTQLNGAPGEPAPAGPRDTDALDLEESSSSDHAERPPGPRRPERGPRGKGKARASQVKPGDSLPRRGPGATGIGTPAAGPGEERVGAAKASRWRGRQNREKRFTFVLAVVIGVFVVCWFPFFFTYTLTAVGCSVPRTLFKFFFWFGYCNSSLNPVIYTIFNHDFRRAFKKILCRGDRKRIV
Assay [3] has as its target T2, 5-Hydroxytryptamine (Serotonin) Receptor 3A (5-HT3A) (Homo sapiens, UniProt P46098).
T2 construct: expressed in transfected cells
The assay can be described thus: Ion channel assay, blocker format. Format: cell-based. The settings on record: read-out: IC50 (μM) Antag./Blocker/Inhibitor.

Another assay has as its target KvLQT1/minK (Homo sapiens, UniProt P51787). Description: Ion channel assay, opener format. Type of assay: cell-based. To be noted: read-out: EC50 (μM) Agonist/Opener.
The target of assay [4] is Adrenergic Receptor β1 (ADRB1) (Homo sapiens, UniProt P08588). The assay can be described thus: cAMP secondary messenger assay, antagonist format. The settings on record: read-out: IC50 (μM) Antag./Blocker/Inhibitor. Type of assay: cell-based.
Chain of Adrenergic Receptor β1 (ADRB1) (P08588 whole entry): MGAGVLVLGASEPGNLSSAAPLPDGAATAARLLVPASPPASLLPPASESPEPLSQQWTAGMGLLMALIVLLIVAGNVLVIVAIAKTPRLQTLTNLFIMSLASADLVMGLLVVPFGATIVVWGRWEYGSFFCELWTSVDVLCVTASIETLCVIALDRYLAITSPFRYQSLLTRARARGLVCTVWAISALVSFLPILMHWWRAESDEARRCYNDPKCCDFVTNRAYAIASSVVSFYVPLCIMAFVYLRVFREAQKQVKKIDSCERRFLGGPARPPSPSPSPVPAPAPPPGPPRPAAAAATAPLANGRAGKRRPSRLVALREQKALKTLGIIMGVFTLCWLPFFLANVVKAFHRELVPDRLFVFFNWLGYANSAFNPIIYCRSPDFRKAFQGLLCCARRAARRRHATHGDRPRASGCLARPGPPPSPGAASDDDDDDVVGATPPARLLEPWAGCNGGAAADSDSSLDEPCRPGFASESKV
Assay [5] has as its target T3, Insulin Receptor (tyrosine kinase) (INSR) (Homo sapiens, UniProt P06213).
T3 construct: T7 phage fusion (most assays) or DNA tag for qPCR (the remaining kinases); made in house; host or cells: E. coli (BL21-derived, T7 phage display) or HEK-293
The assay can be described thus: Kinase binding assay (KINOMEscan). To be noted: inhibitor, read-out: IC50 (μM) Antag./Blocker/Inhibitor.

Assay [6] concerns the target Adenosine Receptor A2A (ADORA2A) (Homo sapiens, UniProt P29274). Description: Calcium flux secondary messenger assay, antagonist format. Format: cell-based. The settings on record: read-out: IC50 (μM) Antag./Blocker/Inhibitor. A general note: Calcium assays in cells follow changes in intracellular calcium, usually with a dye or a luminescent sensor.
Assay [7] deals with Dopamine Receptor D1 (DRD1) (Homo sapiens, UniProt P21728). The assay can be described thus: cAMP secondary messenger assay, agonist format. Type of assay: cell-based. The settings on record: read-out: EC50 (μM) Agonist/Opener.
Chain of Dopamine Receptor D1 (DRD1) (P21728 whole entry): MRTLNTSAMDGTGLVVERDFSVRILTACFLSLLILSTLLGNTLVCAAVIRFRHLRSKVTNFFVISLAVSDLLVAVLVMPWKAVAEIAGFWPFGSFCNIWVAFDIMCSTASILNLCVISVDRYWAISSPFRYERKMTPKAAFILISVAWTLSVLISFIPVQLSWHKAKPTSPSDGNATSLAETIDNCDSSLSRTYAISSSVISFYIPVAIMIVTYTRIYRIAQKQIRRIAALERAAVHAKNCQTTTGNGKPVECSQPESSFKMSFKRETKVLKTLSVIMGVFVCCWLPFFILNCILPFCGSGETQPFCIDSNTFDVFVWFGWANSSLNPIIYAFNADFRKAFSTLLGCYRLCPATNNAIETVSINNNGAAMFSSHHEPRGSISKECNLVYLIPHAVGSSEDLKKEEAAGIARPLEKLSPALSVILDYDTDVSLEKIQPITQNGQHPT
Assay [8] concerns the target Adrenergic Receptor α1A (ADRA1A) (Homo sapiens, UniProt P35348). The assay can be described thus: Calcium flux secondary messenger assay, antagonist format. Type of assay: cell-based. The settings on record: read-out: IC50 (μM) Antag./Blocker/Inhibitor.
The target of assay [9] is Opioid Receptor Kappa 1 (OPRK1) (Homo sapiens, UniProt P41145). The assay can be described thus: cAMP secondary messenger assay, agonist format. Format: cell-based. The settings on record: read-out: EC50 (μM) Agonist/Opener.
Chain of Opioid Receptor Kappa 1 (OPRK1) (P41145 whole entry): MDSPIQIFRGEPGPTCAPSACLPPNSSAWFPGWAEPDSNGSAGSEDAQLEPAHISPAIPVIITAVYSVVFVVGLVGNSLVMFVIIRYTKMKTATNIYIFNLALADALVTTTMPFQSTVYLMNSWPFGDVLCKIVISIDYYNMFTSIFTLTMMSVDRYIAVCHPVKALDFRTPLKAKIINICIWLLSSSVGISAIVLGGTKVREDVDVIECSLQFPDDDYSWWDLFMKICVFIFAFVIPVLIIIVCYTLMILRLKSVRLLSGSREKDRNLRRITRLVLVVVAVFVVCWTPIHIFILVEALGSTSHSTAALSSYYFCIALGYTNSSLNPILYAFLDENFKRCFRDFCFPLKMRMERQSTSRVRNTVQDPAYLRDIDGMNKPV
The test system of assay [10] is Gamma-aminobutyric acid Receptor A (GABAA). Description: Ion channel assay, blocker format. Type of assay: cell-based. The settings on record: read-out: IC50 (μM) Antag./Blocker/Inhibitor.
The target in another assay is T4, 5-HT1B receptors (Homo sapiens, UniProt P28222).
T4 construct: host or cells: cAMP Hunter cell line
T4 sequence (P28222 whole entry): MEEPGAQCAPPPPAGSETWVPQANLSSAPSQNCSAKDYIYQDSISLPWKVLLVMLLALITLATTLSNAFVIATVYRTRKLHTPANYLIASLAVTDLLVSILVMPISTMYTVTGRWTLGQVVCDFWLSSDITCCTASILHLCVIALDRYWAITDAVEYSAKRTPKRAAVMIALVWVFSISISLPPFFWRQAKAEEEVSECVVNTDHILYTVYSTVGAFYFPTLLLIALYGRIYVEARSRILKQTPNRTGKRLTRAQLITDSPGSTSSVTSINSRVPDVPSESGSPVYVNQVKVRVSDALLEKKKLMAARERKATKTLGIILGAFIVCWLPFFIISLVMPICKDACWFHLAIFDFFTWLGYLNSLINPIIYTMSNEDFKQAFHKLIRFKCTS
Description: In vitro activity at 5-HT1B receptors, agonist mode (cAMP secondary messenger assay). Format: cell-based.

In assay [11] the target is Endothelin Receptor Type A (EDNRA) (Homo sapiens, UniProt P25101). Description: Calcium flux secondary messenger assay, agonist format. Format: cell-based. To be noted: read-out: EC50 (μM) Agonist/Opener.
Chain of Endothelin Receptor Type A (EDNRA) (P25101 21-427): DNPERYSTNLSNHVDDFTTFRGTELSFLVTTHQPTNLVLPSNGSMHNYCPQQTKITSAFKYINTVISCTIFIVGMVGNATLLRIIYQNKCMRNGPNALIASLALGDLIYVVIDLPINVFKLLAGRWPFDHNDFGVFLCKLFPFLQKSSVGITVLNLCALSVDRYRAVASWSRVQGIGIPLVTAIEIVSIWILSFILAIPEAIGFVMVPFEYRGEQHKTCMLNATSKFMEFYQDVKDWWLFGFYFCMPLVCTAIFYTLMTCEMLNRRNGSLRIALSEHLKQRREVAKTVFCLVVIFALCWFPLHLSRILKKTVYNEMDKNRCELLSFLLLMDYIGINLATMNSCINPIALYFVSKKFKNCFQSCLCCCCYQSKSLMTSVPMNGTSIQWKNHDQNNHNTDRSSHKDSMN

Structures can show the parent of a compound that is named as a salt. Where two headings read alike, the source gives them in different places.

Chain of Adenosine Receptor A2A (ADORA2A) (P29274 whole entry): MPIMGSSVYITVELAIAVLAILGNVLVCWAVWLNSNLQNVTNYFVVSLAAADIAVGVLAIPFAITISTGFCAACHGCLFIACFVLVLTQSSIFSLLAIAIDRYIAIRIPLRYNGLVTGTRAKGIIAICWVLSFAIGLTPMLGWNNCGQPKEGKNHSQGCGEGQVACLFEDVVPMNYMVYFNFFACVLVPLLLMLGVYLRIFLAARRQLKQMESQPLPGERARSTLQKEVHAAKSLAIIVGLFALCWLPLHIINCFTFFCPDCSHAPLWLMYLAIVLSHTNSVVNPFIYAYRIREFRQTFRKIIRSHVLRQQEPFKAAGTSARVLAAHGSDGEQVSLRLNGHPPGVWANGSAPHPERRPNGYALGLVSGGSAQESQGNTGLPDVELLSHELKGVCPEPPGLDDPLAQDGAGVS
T1 sequence (P08908 whole entry): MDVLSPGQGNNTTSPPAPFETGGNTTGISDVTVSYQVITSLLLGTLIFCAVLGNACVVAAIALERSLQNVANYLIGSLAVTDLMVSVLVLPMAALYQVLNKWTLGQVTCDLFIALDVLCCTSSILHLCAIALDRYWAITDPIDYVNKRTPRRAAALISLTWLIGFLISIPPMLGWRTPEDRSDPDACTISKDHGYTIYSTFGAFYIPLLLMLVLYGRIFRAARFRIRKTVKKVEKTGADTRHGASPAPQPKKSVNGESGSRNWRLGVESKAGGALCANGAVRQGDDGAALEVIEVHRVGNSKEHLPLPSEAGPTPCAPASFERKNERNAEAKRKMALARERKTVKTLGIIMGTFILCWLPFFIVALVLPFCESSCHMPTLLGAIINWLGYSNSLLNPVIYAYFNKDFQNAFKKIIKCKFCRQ
Chain of Adrenergic Receptor α1A (ADRA1A) (P35348 whole entry): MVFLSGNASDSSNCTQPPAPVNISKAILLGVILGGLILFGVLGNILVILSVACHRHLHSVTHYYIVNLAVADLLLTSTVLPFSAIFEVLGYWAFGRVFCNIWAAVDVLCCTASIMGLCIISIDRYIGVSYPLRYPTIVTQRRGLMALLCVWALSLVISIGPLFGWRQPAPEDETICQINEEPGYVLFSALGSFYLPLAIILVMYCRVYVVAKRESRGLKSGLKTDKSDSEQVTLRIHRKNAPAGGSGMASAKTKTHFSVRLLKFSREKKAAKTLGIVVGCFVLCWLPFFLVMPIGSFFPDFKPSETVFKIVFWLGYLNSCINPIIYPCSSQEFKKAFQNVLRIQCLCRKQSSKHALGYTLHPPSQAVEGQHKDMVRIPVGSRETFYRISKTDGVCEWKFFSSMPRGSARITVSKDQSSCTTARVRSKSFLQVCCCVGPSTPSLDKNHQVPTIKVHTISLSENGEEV
Chain of KvLQT1/minK (P51787 whole entry): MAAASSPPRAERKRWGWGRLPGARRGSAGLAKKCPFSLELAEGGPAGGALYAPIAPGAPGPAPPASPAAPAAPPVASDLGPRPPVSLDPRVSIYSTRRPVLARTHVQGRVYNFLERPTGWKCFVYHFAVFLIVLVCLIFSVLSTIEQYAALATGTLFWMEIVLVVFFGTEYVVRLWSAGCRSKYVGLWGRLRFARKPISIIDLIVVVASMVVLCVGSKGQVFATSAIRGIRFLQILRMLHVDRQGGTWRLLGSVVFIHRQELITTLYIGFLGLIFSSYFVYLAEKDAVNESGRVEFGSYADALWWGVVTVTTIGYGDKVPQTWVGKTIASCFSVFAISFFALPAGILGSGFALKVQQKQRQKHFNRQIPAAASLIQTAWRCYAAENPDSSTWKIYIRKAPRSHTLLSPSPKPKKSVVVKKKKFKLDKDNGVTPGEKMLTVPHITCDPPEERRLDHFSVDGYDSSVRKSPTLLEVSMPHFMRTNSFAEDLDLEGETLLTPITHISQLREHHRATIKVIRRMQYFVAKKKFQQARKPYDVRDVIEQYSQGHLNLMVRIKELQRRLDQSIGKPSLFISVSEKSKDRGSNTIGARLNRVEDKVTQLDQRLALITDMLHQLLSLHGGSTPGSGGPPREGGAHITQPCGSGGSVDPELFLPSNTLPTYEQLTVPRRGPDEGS

`CN(C)CCc1ccn2ccccc12` [28-12 oxalate, 2-(indolizin-1-yl)-N, N-dimethylethan-1-amine oxalate]: the IC50 is greater than 30 µM in assay [1]; greater than 30 µM in assay [2]; 7.82 µM in [3]; greater than 30 µM in [4]; greater than 30 µM in assay [5]; greater than 30 µM in [6]. The values for the IC50 in assay [8] and in assay [10] were 2.31 µM and greater than 30 µM, respectively. For the same molecule, the EC50 on KvLQT1/minK is greater than 30 µM; in assay [7] it was greater than 30 µM; in [9], greater than 30 µM; at 5-HT1B receptors (5-HT1B, cAMP, read-out: EC50 (μM) Agonist/Opener) it was 0.143 µM; on 5-HT1B receptors (EC50, agonism of 5-HT1B receptors, ten concentrations up to 30 μM), roughly 0.143 µM; in assay [11], greater than 30 µM.
